What all share (assay type): cell-based
The subject of one assay is Fusarium proliferatum. Nature of the assay: Petri plate test, inhibition of mycelial growth (NY/T 1156.2-2006). The following applies: 72 h, mycelial growth on PDA plates, 25° C., three days in darkness. The source says: Certain mixture compositions according to the present invention may show a synergistic effect. This occurs whenever the action of an active ingredient combination is greater than the sum of the actions of the individual components. The combined toxicity of two agents can be evaluated by the Co-Toxicity Coefficient (CTC) according to the Sun-YP method (Yun-Pei, Sun. “Toxicity Index-An Improved Method of Comparing the Relative Toxicity of Insecticides.” Journal of Economic Entomology 1(1950):45-53.). A CTC value of less than 80 indicates an antagonistic effect, a CTC value of 80-120 indicates an additive effect, and a CTC value of greater than or equal to 120 indicates a synergistic effect.
Component A represents standard Al, and component B represents the component to be mixed with the standard Al. • ATI (Measured toxicity index of a mixture)=(Standard Al's EC50/Mixture's EC50)*100 • TTI (Theoretical toxicity index of a mixture)=(TIA*PA+TIB*PB)*100 • TIA (Toxicity index of component A)=the EC50 of component A/the EC50 of component A • PA: Percentage of component A in the mixture • TIB (Toxicity index of component B)=the EC50 of component A/the EC50 of component B • PB: Percentage of component B in the mixture […]

Another assay has as its system Gibberella fujikuroi. Description: microbe, parasite or virus in culture. The following applies: Fusarium fujikuroi, 72 h, read-out: EC50 Value.
The next assay deals with Fusarium graminearum. Description: microbe, parasite or virus in culture. The following applies: 72 h, read-out: EC50 Value.

The structures appear in SMILES notation. ≈ marks a conversion by molar mass, not a printed value.

A word on the EC50: it is the concentration giving half of the maximal effect.

`CCOC(=O)/C(C#N)=C(\N)c1ccccc1` [PHM, (Z)-ethyl 2-cyano-3-amino-3-phenylacrylate]: the EC50 is 3.08 µg/mL in the assay on Fusarium proliferatum, 0.197 µg/mL (≈ 0.91 µM) in the assay with Gibberella fujikuroi and 0.0307 µg/mL (≈ 0.142 µM) with Fusarium graminearum.

As for `O=C(N[C@@H]1CC[C@@H]1c1ccc(Cl)cc1Cl)c1cccnc1C(F)(F)F` [cylcobutrifluram, N-[(1,2 cis)-2-(2,4-dichlorophenyl)cyclobutyl]-2-(trifluoromethyl)pyridine-3-carboxamide], the EC50 with Fusarium proliferatum was 0.882 µg/mL; with Gibberella fujikuroi it was 0.75 µg/mL (≈ 1.93 µM); with Fusarium graminearum, 0.0222 µg/mL (≈ 0.057 µM).
